In a melting point compilation (Tetko et al.; mined from patent text by program, amines drawn as free bases though some values may be those of a salt) one finds melting point data, which are given here for 86 molecules.

A value given as a limit tells only on which side of the number the result lay.

The term melting point denotes the temperature of the solid-liquid transition.

Regarding `C=CCOc1ccc(C)c2c1C(=O)CC2`, the melting point lay in the range of 89 to 92 °C.
The figure for `CCN(CC)CC1CCCCN1CCCNC(=O)N1c2ccccc2NC(=O)c2ccccc21` (stereo unspecified) is 148 to 150 °C.
In the case of `CON(C)C(=O)CCc1oc(-n2ccnc2C)nc1-c1ccc(Cl)cc1`, the melting point was in the range of 116 to 117 °C.
In turn, `CC(C)(C(=O)O)C1([N+](=O)[O-])OC2=CC=CC2=CC1c1ccccc1` (stereo unspecified) displayed a melting point of 256 to 258 °C.
`CCOCC1COc2c(cc(N)cc2C(F)(F)F)O1` (stereo unspecified) displayed a melting point of 96 to 98 °C.
In the case of `Cc1ccc(N2CSC(=NCc3ccc(C(F)(F)C(F)(F)F)cc3)N(CC(F)(F)F)C2=O)cc1`, the melting point fell in the range of 103 to 104 °C.
Consider `Cn1ncnc1COc1nc2c(-c3ccccc3F)nncn2c1-c1ccccc1`, for which the melting point came to 195 °C.
The figure for `CC(=O)Oc1cc(CCc2ccccc2)cc(OC(C)=O)c1OC(C)=O` is 79.5 to 80 °C; for `O=C(O)CCc1cnoc1-c1ccc(Cl)c(F)c1` it is 139 to 140 °C.
`N[C@@H](CCC1CCCCC1)C(=O)O` came in with a melting point of 265 to 266 °C.
On to `CN(C)n1cc(C(=O)NCc2ccc(Cl)cc2)c(=O)c2ccccc21`, for which the melting point was 170 to 172 °C.
`O=Cc1cccc(/C=C/c2nc3cc(F)ccc3s2)c1`: the melting point is 151 to 152 °C.
The molecule `CN(CCc1[nH]c2ccccc2c1-c1ccccc1)C(=O)CCl` displayed a melting point of 135 to 138 °C.
In the case of `CCCCOCCOc1ccc(-c2ccc3c(c2)C=C(C(=O)Nc2ccc(CP4(=O)OCCCO4)cc2)CCS3(=O)=O)cc1`, the melting point was 222 to 223 °C.
In turn, `Cc1nc2ccc(-c3ccc(OCC4(NC(=O)C5CC5)COC4)cc3)nn2c1-c1cnc(N)c(C(F)(F)F)c1` returned a melting point of 191 to 193 °C.
As to `OCc1cn2c(n1)CN=C(c1ccccc1F)c1cc(Cl)ccc1-2`, the melting point lay within 196 to 200 °C.
Molecule `COCCOc1cc2ncnc(NC3=CC(=O)C(Oc4ccccc4)=CC3=O)c2cc1OC` displayed a melting point of 177 to 180 °C.
For the molecule `COc1ccc(CCNC(=O)C(F)(F)F)c2ccc(=O)[nH]c12`, the melting point is 181 to 184 °C.
As for `Nc1ccc(C=Cc2cc(=O)cc(-c3ccccc3)o2)cc1`, the melting point lay in the range of 192 to 194 °C.
On to `Cc1cc(-n2ccnc2)c2cccc(OCc3c(Cl)ccc(S(=O)(=O)N4CCCC4C(=O)NCC4CCN(CC(=O)CC(=O)O)CC4)c3Cl)c2n1` (stereo unspecified), for which the melting point came out at 125 °C.
For the molecule `CC(C)c1cc(C(=O)Nc2ccc(C(=O)O)c(O)c2)sc1C(C)C`, the melting point lay in the range of 129 to 130 °C.
`CC(=O)NC12CC3(C)CC(C)(CC(CO)(C3)C1)C2`: the melting point was in the range of 152 to 153 °C.
Molecule `Cc1ccc(N2C=NC3CCCCC3C2=O)cc1` (stereo unspecified) gave a melting point of 79 to 82 °C.
`CC(C)(C)OC(=O)N[C@@H](Cc1ccc(Cl)cc1)C(=O)NC1CCC(Nc2cccc3c2C(=O)c2ccccc2C3=O)CC1` (stereo partly specified): the melting point was determined as 190 °C.
Regarding `COC(=O)CC(SC(C)=O)C(CC(C)C)C(=O)NC1CCCCCCCCCCNC1=O` (stereo unspecified), the melting point fell in the range of 213 to 216 °C.
Molecule `CC(=O)C1CCC2C3CCC4=CC(=O)C=CC4(C)C3=CCC12C` (stereo unspecified) showed a melting point of 161 to 163 °C.
The result for `COc1ccc(-n2nc(C(F)F)cc2-c2ccc(S(C)=O)cc2)cc1` (stereo unspecified) reads 123 to 124 °C.
Regarding `CCN1CCOc2cc(Nc3ncc(Cl)c(Nc4ccccc4C(=O)NC)n3)ccc2C1=O`, the melting point was in the range of 215 to 220 °C.
In the case of `COc1cc2ncnc(N3CCN(C(=S)Nc4cccc(NC(C)=O)c4)CC3)c2cc1OC`, the melting point was in the range of 207 to 208 °C.
The molecule `CCC(CC)N1C(=O)NCc2c1cc(C)nc2Oc1c(C)cc(C)cc1C` registered a melting point of 197 to 199 °C.
With `O=C1c2cccnc2N(N2CCCCCC2)C2=NCCN12`, the melting point fell in the range of 217 to 219 °C.
`Cc1cc2oc(C(=O)O)cc(=O)c2c2c1-c1ccccc1C(C)(C)O2` displayed a melting point of 231 to 232 °C.
For `COc1cc(N(C)C)c(Cl)cc1C(=O)NC1CCN(Cc2ccccc2)C1` (stereo unspecified), the melting point was 85 to 86 °C.
For `C#Cc1ccc(Nc2c(C(=O)c3nccn3C)ccc(F)c2F)c(F)c1`, the melting point came out at 166 °C.
For `COC(=O)C(NC(C)=O)C(=O)OCCCl` (stereo unspecified), the melting point is 81 to 82 °C.
The result for `O=C(Nc1cccc(Br)c1)Nc1cc(NC(=O)Nc2cccc(Br)c2)cc(C(=O)O)c1` reads more than 300 °C.
For the molecule `COc1ccc(/C=N/N2C=COC=C2)cc1OC1CCCC1`, the melting point lay within 108 to 109 °C.
Regarding `CC1(C)CS(=O)(=O)CC(C)(C)[NH+]1[O-]`, the melting point came out at 163 °C.
`C[C@@H]1NC(=O)c2cccc([N+](=O)[O-])c2N[C@H]1C` (relative stereo) showed a melting point of 170 °C.
On to `O=c1c(CCCc2ccncc2)cc2cccnc2n1-c1cccc2nsnc12`, for which the melting point lay in the range of 191 to 192 °C.
Regarding `O=C(Nc1ccccc1S(=O)(=O)NCCCn1ccnc1)c1cccc(C(F)(F)F)c1`, the melting point fell in the range of 145 to 147 °C.
Molecule `Cc1c(NC(=O)CC(C)(C)C)c(C)c2c(c1-c1cccc([N+](=O)[O-])c1)OCC2c1ccc(C(C)C)cc1` (stereo unspecified) had a melting point of 209 to 210 °C.
In turn, `COc1cc(C)c(C(=O)c2c(C)cccc2O)c(OC)c1OC` returned a melting point of 82 to 84 °C.
In the case of `O=C(O)c1cc2c(OC[C@@H](O)CN3CCC(c4ccc5ccccc5c4)CC3)cccc2[nH]1`, the melting point lay in the range of 171 to 173 °C.
For `CCCCC(C=C1c2cc3c(cc2-c2sc(-c4cc5sccc5s4)cc21)C(=CC(CC)CCCC)c1cc(-c2cc4sccc4s2)sc1-3)CC` (stereo unspecified), the melting point came out at 320 °C.
In turn, `COC(=O)c1cc(O)n(C(C)C)n1` registered a melting point of 162 to 163 °C.
The figure for `Cc1cc2c(-c3ccccc3)noc2c2c1OC(CO)C2` (stereo unspecified) is 130 to 133 °C; for `CCC(Oc1c(C)cccc1C)C(=O)OC1CC(O)C=C2C=CC(C)C(CCC3CC(O)CC(=O)O3)C21` (mixture of isomers) it is 125 to 127 °C; for `CCOc1ccccc1Nc1nc(Nc2cc3c(cc2OC)CCN(CC(=O)N(C)C)CC3)ncc1Cl` it is 60 to 79 °C.
The molecule `CNc1cc(OC)c(C(=O)NC2CCN(Cc3ccccc3)C2)cc1Cl` (stereo unspecified) registered a melting point of 101 to 102 °C.
On to `CCCCOc1cc(C=CC(=O)N2CCN(c3ccc(NC(=N)c4cccs4)cc3)CC2)cc(OCCCC)c1O`, for which the melting point was in the range of 65 to 68 °C.
Molecule `Cn1ccnc1S(=O)(=O)c1ccccc1Cl` gave a melting point of 156 to 159 °C.
Take `CC(=O)N=C(N(C)C(C)=O)N(C)C1CCN(c2nc3ccccc3n2Cc2ccc(F)cc2)CC1`: the melting point came out at 176 °C.
The figure for `COc1cc(OC)nc(Sc2ccnc3cc(Cl)ccc23)n1` is 93 to 94.5 °C; for `Cc1ccc(-c2cc3cc(C=O)ccc3o2)cc1` it is 162 to 164 °C; for `COCCc1nc2c(N)nc3ccccc3c2n1CCOCCS(C)(=O)=O` it is 142 to 144 °C.
The molecule `CC(Cc1c[nH]c2ccccc12)(NC(=O)OC1C2CC3CC(C2)CC1C3)C(=O)NC(CN=[N+]=[N-])Cc1ccccc1` (stereo unspecified) showed a melting point of 77 to 78 °C.
On to `COc1cccc(C(=O)Nc2ccc(N3CCN(CC(N)=O)CC3)cc2)c1-c1ccc(C(C)C)cc1`, for which the melting point was in the range of 207 to 209 °C.
`C[Si](C)(O[C@@H]1c2cc(Br)ccc2-c2ccc(Br)cc2[C@H]1O[Si](C)(C)c1ccccc1)c1ccccc1` (relative stereo) had a melting point of 103 to 104 °C.
Molecule `O=C(CCCO)NCc1ccccc1` returned a melting point of 70 to 72 °C.
On to `COc1ccc(F)c(/C=C/CN2C(=O)c3ccccc3C2=O)c1`, for which the melting point turned out to be 118 °C.
Take `C=CCC1(CC=C)CCC(=Cc2ccc(F)cc2)C1(O)Cn1cncn1` (stereo unspecified): the melting point was determined as 112 °C.
For `NC(=O)CC(CC(N)=O)c1c(Cl)cccc1Cl`, the melting point fell in the range of 221 to 225 °C.
`CC12CCC3C(CC(O)C4(O)CC=CCC34C)C1CCC2=O` (stereo unspecified) had a melting point of 183 to 186 °C.
The figure for `CCCCOc1c(NC(CC)CC)c(=O)c1=O` is 65 to 66 °C; for `CC(=O)C1CCC2C3CCC4CC(O)C(N5CCOC(c6ccccc6)(c6ccccc6)C5)CC4(C)C3C(=O)CC12C` (stereo unspecified) it is 248 to 250 °C; for `O=C(O)c1ccc2c(c1)S(=O)(=O)c1ccccc1S2=O` (stereo unspecified) it is 340 to 343 °C.
`Cc1cc(C2=NNC(=O)CC2)ccc1CCCCN` returned a melting point of 145 to 147 °C.
The figure for `N=C1NCCCN1Cc1ccc(Cl)nc1` is 220 °C.
In turn, `COc1ccc(-c2ccc(C(=O)Nc3ccc4cc(CN5CCCC5)cnc4c3F)c(F)c2)cc1` returned a melting point of 182 to 183 °C.
Take `CCc1cc(SCc2ccc(-c3ccccc3C#N)cc2)n2nccc2n1`: the melting point lay within 153 to 155 °C.
Molecule `Cc1ccc2c(C(=O)NC3CN4CCC3CC4)cnn2c1` (stereo unspecified) showed a melting point of 142 to 144 °C.
In the case of `CSC(=CC(=O)c1ccccc1C)SC`, the melting point was 96.2 °C.
`Oc1ccc(Cl)cc1I` yielded a melting point of 79 to 82 °C.
The molecule `O=C(O)CCCCCCCOc1ccccc1O` showed a melting point of 60 to 64 °C.
The figure for `O=C(c1cccc2[nH]ccc12)N1CCOCC1` is 127 to 129 °C; for `CC1(C(=O)c2c[nH]c3ncc(-c4ccc(N5CCNCC5)cc4)nc23)CCCCC1` it is 214 to 216 °C.
The molecule `COc1c(C)c(NC(=O)CC(C)(C)C)c(C)c2c1OCC2c1ccc(C(C)C)cc1` (stereo unspecified) returned a melting point of 150 to 151 °C.
In the case of `O=C1NS(=O)(=O)c2cccc(Cl)c21`, the melting point was in the range of 210 to 212 °C.
With `O=C(O)CCCCSc1nc2c(F)c(F)cc(F)c2s1`, the melting point is 56 to 58 °C.
For `CNc1ccc(CCc2ccc(OC)c(OC)c2)cc1`, the melting point lay within 82 to 84 °C.
As for `O=C(O)c1ccc(COc2ccccc2-c2cc(O)c(SCCc3ccccc3)c(=O)o2)cc1`, the melting point stood at 227 °C.
Take `O=c1nc(NCCCCc2ncccc2Cl)[nH]cc1C(O)c1ccncc1` (stereo unspecified): the melting point came to 90 °C.
On to `CS(=O)(=O)c1ccc(N2C[C@H](COc3ccon3)OC2=O)cc1`, for which the melting point is 180 °C.
In the case of `CC(C)CN1c2ccccc2C(C)(C)C12C=Nc1c(cc(N3CCc4ccccc43)c3ccccc13)O2` (stereo unspecified), the melting point lay within 167 to 168 °C.
The molecule `CN(C)CCN(C)C(=O)[C@H]1CC[C@H](N(C)S(=O)(=O)c2ccc(C(F)(F)F)cc2)CC1` gave a melting point of 83 °C.
